Test results taken from publication PMC5085761 (International Journal of Molecular Sciences, 2016).

How the values were obtained:
Format in all cases: in vitro ADME
[1] = biological target: T1, OCT2 (Homo sapiens, UniProt O15244); experiment: [14C]fluciclovine uptake by OCT2-expressing cells; settings: OCT2 cells vs mock cells
T1 construct: host or cells: HEK293
T1 sequence (O15244 1-555): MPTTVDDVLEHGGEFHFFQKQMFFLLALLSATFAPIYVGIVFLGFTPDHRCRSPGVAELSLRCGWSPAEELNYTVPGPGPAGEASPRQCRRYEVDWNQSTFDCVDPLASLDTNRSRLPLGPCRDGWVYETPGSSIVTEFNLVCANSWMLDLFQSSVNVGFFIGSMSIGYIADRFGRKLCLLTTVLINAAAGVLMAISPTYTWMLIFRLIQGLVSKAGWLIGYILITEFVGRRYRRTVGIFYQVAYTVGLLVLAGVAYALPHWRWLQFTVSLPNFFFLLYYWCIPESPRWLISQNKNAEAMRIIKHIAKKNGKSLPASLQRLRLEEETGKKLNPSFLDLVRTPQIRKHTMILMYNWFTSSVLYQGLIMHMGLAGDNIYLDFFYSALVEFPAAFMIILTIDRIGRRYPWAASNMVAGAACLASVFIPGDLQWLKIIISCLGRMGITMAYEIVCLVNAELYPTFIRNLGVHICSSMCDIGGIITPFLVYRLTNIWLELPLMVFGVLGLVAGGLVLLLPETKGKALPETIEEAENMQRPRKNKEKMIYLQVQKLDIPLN

[2] = biological target: T2, OAT3 (Homo sapiens, UniProt Q8TCC7); experiment: Inhibition of tracer uptake in OAT3-expressing cells
T2 construct: host or cells: HEK293
T2 sequence (Q8TCC7 1-542): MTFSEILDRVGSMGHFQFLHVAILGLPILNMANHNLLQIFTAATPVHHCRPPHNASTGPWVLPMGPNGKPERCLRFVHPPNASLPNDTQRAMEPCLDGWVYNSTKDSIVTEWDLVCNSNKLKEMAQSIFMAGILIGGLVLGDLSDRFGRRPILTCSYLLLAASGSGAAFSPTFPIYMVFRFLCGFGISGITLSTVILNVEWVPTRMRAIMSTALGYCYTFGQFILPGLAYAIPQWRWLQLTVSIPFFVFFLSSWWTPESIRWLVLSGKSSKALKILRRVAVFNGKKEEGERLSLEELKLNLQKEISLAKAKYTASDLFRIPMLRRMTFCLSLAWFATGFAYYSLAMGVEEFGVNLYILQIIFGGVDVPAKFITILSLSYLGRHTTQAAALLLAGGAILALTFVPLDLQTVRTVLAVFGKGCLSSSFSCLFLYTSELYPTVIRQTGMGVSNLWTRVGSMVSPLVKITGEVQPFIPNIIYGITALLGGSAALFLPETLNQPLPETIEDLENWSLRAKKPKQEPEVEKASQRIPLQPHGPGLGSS
Method: (§1) For the SLC transporter experiments, Mock Flp-in-293 cells (Flp/mock), OAT1-expressing Flp-in-293 cells (Flp/OAT1), mock HEK293 cells (HEK/mock), and OATP1B3-expressing HEK293 cells (HEK/OATP1B3) were obtained from Kanazawa University (Ishikawa, Japan). Briefly, Flp-in-293 and HEK293 cells were transfected with the appropriate plasmid DNA and selected using antibiotics (hygromycin or G-418). All cell lines were cultured in DMEM (Life Technologies Japan) supplemented with 10% (v/v) fetal bovine serum (American Type Culture Collection) and antibiotics (100 U/mL penicillin and 100 μg/mL streptomycin (Life Technologies Japan) for mock cells, 0.2 mg/mL hygromycin for Flp/OAT1 cells, and 1.2 mg/mL G-418 (Roche Diagnostics K.K., Tokyo, Japan) for HEK/OATP1B3 cells) at 37 °C under an atmosphere containing 5% CO2. […]
(§2) The experiments were performed as described previously, with minor modifications. […] The cells were lysed in 0.3 mL of 0.1N NaOH at room temperature, after which the radioactivity of each aliquot was measured as described above. The protein concentration of the cell lysate was determined with a VersaMax microplate reader (Molecular Devices Japan K.K., Osaka, Japan) or SpectraMax i3x (Molecular Devices Japan K.K.; only for OATP1B1) using a BCA Protein Assay Kit (Thermo Fisher Scientific, Kanagawa, Japan). Tracer uptake was expressed as pmol/mg protein. […]

[3] = biological target: T1, OCT2; experiment: Inhibition of tracer uptake in OCT2-expressing cells; settings: OCT2, tracer [14C]metformin 10 µM
[4] = biological target: T3, OATP1B3 (Homo sapiens, UniProt Q9NPD5); experiment: Inhibition of tracer uptake in OATP1B3-expressing cells; settings: OATP1B3, tracer [3H]E2G 0.1 µM, 100 µM–10 mM fluciclovine
T3 construct: host or cells: HEK293
T3 sequence (Q9NPD5 1-702): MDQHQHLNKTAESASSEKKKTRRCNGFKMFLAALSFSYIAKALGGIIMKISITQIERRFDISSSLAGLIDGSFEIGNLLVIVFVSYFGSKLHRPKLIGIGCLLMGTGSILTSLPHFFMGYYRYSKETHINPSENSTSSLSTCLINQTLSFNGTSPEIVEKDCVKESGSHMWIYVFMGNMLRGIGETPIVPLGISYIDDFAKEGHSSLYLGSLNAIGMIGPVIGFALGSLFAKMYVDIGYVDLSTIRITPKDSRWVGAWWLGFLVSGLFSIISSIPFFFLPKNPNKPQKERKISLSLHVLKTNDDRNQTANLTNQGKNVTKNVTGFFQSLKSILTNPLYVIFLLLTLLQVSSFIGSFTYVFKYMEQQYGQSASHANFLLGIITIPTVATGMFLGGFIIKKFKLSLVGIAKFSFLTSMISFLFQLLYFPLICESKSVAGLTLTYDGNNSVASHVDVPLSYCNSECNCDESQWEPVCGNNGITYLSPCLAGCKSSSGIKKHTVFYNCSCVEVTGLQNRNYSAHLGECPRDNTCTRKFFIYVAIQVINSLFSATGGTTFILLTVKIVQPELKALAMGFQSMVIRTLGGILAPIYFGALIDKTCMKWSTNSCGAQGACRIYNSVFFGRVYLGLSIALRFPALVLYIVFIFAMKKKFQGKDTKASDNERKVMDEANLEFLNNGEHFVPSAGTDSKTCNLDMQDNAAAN
Method: as §1, §2

Row | SMILES | drug transporter-mediated uptake [1] | inhibition by fluciclovine at millimolar concentrations observed ([2]; OAT3, tracer [3H]ES 1 µM, 100 µM–10 mM fluciclovine) | OAT3-mediated ES uptake ([2]; in the presence of 10 mM fluciclovine) | IC50 [3] | inhibition by fluciclovine at millimolar concentrations observed [4]
1 | N[14C]1(C(=O)O)CC(F)C1 (stereo not drawn) [[^14C]fluciclovine, trans-1-amino-3-fluoro[1-^14C]cyclobutanecarboxylic acid] | negligible | – | – | – | –
2 | N[C@]1(C(=O)O)C[C@@H](F)C1 [fluciclovine] | – | not | increased | 8.95 ± 1.96 mM | not
